Measured values: patent US5639745A, “Fused-bicyclic lactams as interleukin-1β converting enzyme inhibitors” (Sanofi, priority 1995, dated 1997)

Legend:
[1] = target: T1, ICE (IL-1β protease) (Homo sapiens, UniProt P29466); experiment: modified in vitro enzyme assay, reversible Ki* for ICE (Succinyl-Tyr-Val-Ala-Asp-amino methylcoumarin substrate); assay type: biochemical; conditions: aldehydes
T1 sequence (P29466 120-297 limits assumed): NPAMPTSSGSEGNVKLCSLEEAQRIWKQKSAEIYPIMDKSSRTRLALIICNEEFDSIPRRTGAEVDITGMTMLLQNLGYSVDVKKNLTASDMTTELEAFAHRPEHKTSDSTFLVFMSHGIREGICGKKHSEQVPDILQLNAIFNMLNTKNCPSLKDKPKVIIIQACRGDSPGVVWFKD
T1 sequence (P29466 317-404 limits assumed): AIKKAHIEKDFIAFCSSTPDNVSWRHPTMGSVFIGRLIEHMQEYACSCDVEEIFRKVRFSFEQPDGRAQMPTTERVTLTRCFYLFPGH
Experimental: Second order rates of inactivation were obtained by using the enzyme assay described in Dolle, R. E.; et al., J. Med Chem. (1994), 37, 563. […] In the case of these reversible inhibitors, the in vitro assay was modified to obtain the reversible Ki * as follows:
Ki * values for reversible inhibitors were determined by preincubating ICE with various concentrations of inhibitor in 10 mM HEPES (a common laboratory buffer; pH 7.5), 25% glycerol, 1 mM dithiothreitol for 30 minutes at 37 ° C. in a polystyrene 96-well plate. Remaining ICE activity was measured by adding 10 uM Succinyl-Tyrosine-Valine-Alanine-Aspartic acid-amino methylcoumarin (Bachem Bioscience, Inc.) and monitoring the increase in fluorescence at 37° C. using a Fluoroskan II fluorescence plate reader. The Ki * was calculated from a plat of 1/v versus I as described previously (Morrison, J. F. and Cleland, W. W. (1983) Biochemistry 22, 5507-5513.

[2] = test system: mature IL-1β release from human monocytes; experiment: human monocyte pulse chase assay, inhibition of release of mature IL-1β (called In Vivo Assay); assay type: cell-based; conditions: human monocytes stimulated with fixed S. aureus
Experimental: In vivo inhibition (IC50) was determined as follows:
Human monocytes were isolated from heparinized leukopheresis units obtained through Biological Specialty Corporation (Lansdale, Pa.). Monocytes were purified by Ficoll-Hupaque (Pharmacia Fine Chemicals, Piscataway, N.J.) gradient centrifugation and more than 95% pure monocyte populations obtained by centrifugal elutriation. The assay was performed on duplicate samples of freshly isolated human monocytes, cultured in suspension at 37° C. and rotated gently in conical bottom polypropylene tubes (Sardstedt Inc., Princeton, N.J.). Human monocytes at a concentration of 5×10^6 cells/mL were resuspended in 1 mL of RPMI 1640 (a common tissue buffer from M. A. Bioproducts, Walkersville, Md.) containing 1% fetal calf serum (FCS) (HyClone, Logan, Utah) and 50 μg/mL gentamycin (Gibco, Grand Island, N.Y.). The cells were treated either with a compound of the invention (i.e. test compound) or with a non-inhibitor (control compound, typically 0.03% DMSO) for 15 minutes and then activated with 0.01% fixed Staphylococcus aureus (The Enzyme Center, Malden, Mass.) for 1 hour. The cells were then centrifuged and resuspended in 1 mL of cysteine, methionine-free RPMI media containing 1% dialyzed FCS (Hyclone). The cells were pretreated with a test compound or control compound for 15 minutes after which 0.01% fixed S. aureus plus 100 μCi Tran 35-S label (ICN, Irvine, Calif.) was added and the cells incubated at 37° C. for 1 hour. After incubation, cells were centrifuged, washed once in phosphate buffer saline and resuspended in 1 mL RPMI containing 1% fetal calf serum. The cells were again pretreated with a test or control compound for 15 minutes and then 0.01% S. aureus for 2 hours. At the end of the incubation, cells were centrifuged and supernates saved for immunoprecipitation. Cells were washed once in phosphate buffer saline and then lysed in RIPA, a continuous cell media buffer containing 2 mM phenylmethylsulfonyl fluoride, 10 mM iodoacetate, 1 μg/mL pepstatin A, 1 μg/mL leupeptin and 0.5 TIU aprotinin.
For the immunoprecipitations, an equal volume of 1% dry milk in RIPA buffer plus 50 μL of resuspended protein A sepharose CL-4B (Pharmacia, Piscataway, N.Y.) was added to supernates and 1 mL of 4% dry milk containing protein A sepharose CL-4B to cell lysates and samples rotated for 30 minutes at 4° C. Beads were then centrifuged down, samples transferred to fresh tubes and incubated overnight with 40 μg rabbit anti-human IL-1β polyclonal antibody (Genzyme, Cambridge, Mass.). The IL-1β proteins were then precipitated with 70 μL protein A sepharose, resuspended in 60 μL SDS sample buffer and run on 15% SGD-PAGE gels. Autoradiography was performed on dried gels and the amount of radioactivity (counts per minute, cpm) quantitated using a Betascope 603 analyzer.
In the monocyte pulse chase assay, each test parameter was run in duplicate. Data was collected from the Beta Scope using a personal computer, then transferred to the VAX system for calculation of mean cpm and standard deviation of the mean. When test compounds were evaluated, the percent inhibition of release of mature IL-1β was calculated as follows:
100×[1-(cells treated with stimuli+test compound-unstimulated cells)/(cells treated with stimuli+control compound-unstimulated cells)]
These % inhibition values were then used to calculate IC50 value for each compound. Since the human monocyte pulse chase assay uses primary cells from different donors, each test compound was run in 2-3 separate experiments, using monocytes from 2-3 different donors.

[3] = test system: chronic myelogenous leukemia cells; conditions: cells removed from chronic myelogenous leukemia patients; cited from earlier work
[4] = test system: IL-1 receptor; conditions: open-label human trial, subcutaneous; cited from earlier work
[5] = test system: IL-1 receptor; conditions: PG-APS arthritis, rats; cited from earlier work
[6] = test system: IL-1 receptor; conditions: colitis model; cited from earlier work
[7] = test system: acute myelogenous leukemia cells; conditions: cited from earlier work

Row | IC50 [2] [µM] | Compound | mode of inhibition / binding kinetics [1] | colony growth inhibition [3] | efficacy in Rheumatoid Arthritis [4] | joint swelling [5] | tissue necrosis and number of inflammatory cells in the colon [6] | blast proliferation inhibition [7]
1 | < 10 | O=C[C@H](CC(=O)O)NC(=O)[C@@H]1CCCN2C(=O)CC[C@H](NC(=O)OCc3ccccc3)C(=O)N12 [Example 2] | reversible inhibitors and display slow binding kinetics |  |  |  |  | 
2 | < 10 | O=C[C@H](CC(=O)O)NC(=O)[C@@H]1CCCN2C(=O)CC[C@H](NC(=O)c3ccccc3)C(=O)N12 [Example 21] | reversible inhibitors and display slow binding kinetics |  |  |  |  | 
3 | < 10 | O=C[C@H](CC(=O)O)NC(=O)[C@@H]1CCCN2C(=O)CC[C@H](NC(=O)c3ccc(OCC(=O)O)cc3)C(=O)N12 [Example 22] | reversible inhibitors and display slow binding kinetics |  |  |  |  | 
4 |  | IL-1ra: IL-1 receptor antagonist |  | inhibit colony growth | shows efficacy | supresses joint swelling | reduced tissue necrosis and the number of inflammatory cells in the colon | Inhibition of Acute Myelogenous Leukemia Blast Proliferation
